Where two headings read alike, the source gives them in different places.
Target: T1, human TLR 8 protein in HEK-blue hTLR 8 tool cell line (Homo sapiens, UniProt Q9NR97)
T1 construct: expressed in transfected cells; host or cells: HEK293 (HEK-Blue hTLR8)
T1 sequence (Q9NR97 27-1041): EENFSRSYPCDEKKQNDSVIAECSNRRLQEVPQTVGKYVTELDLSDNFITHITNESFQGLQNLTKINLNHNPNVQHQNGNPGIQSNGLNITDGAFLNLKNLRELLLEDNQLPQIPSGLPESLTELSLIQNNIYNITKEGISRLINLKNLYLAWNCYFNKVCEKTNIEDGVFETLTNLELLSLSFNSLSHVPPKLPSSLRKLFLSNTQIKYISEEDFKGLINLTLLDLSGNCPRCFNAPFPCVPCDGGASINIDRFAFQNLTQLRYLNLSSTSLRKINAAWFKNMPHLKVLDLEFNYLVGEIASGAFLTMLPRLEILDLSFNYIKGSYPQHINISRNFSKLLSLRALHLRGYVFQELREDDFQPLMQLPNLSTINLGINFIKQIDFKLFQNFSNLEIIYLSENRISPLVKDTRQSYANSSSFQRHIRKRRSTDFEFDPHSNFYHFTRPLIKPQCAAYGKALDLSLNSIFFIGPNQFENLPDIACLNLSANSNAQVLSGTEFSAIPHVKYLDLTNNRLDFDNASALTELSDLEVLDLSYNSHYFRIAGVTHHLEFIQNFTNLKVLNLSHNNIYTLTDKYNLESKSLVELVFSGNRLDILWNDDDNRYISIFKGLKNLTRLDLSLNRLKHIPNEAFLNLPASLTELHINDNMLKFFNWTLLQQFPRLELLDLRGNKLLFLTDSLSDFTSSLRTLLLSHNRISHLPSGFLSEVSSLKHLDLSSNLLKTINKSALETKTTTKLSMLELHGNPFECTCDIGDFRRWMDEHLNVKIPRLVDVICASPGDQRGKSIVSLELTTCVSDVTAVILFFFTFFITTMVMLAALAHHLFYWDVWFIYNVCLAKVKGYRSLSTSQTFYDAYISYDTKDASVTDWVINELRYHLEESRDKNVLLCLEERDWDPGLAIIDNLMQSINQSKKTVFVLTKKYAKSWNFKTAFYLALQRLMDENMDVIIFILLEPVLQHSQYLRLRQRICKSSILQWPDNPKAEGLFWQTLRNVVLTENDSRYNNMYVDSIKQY
Assay: TLR8 stimulation determined by HEK-Blue Detection (NF-κB/SEAP reporter)
Assay type: cell-based
Conditions: HEK-Blue hTLR8 cells, 16 h incubation
Excerpt: TLR8 Stimulation Determined by HEK-Blue Detection
This assay was designed to study the stimulation of human TLR 8 protein in HEK-blue hTLR 8 tool cell line by monitoring the activation of NF-κB. HEK-blue hTLR8 cells were obtained by co-transfection of hTLR8 gene and optimized secretory embryonic alkaline phosphatase (SEAP) reporter gene into HEK293 cells. SEAP reporter gene was put under the control of […] minimal promoter fused with five NF-κB and AP-1-binding sites. NF-κB and AP-1 were activated by stimulation with TLR 8 ligand, thus inducing the expression of SEAP. The level of SEAP can be easily determined by HEK-Blue Detection (a cell culture medium that allows real-time detection of SEAP). HEK-Blue Detection comprises all nutrients needed for cell growth and specific SEAP color substrates. The hydrolysis of substrate by SEAP produces purple/blue color which can be measured by spectrophotometer.
When growing to 50-80% confluence, HEK-Blue hTLR7/8 cells were plated into 96-well plates (costar 3599) at a density of 40,000 cells/well. Then, the compound serially diluted at 10 points with a final concentration ranging from 1 nM to 10 μm in 0.1% DMSO/HEK-Blue Detection was added. The plates were then incubated in 5% CO2 at 37° C. for 16 h. Optical density at 620-655 nm was read on BMG PHERAstar FSX instrument. The EC50 of each compound was determined by calculating the maximum activation percentage identified using Resiquimod or motolimod.
The EC50 of the tested compound of the present invention is as follows.

[1] = relative to maximum activation by Resiquimod or motolimod, read-out: EC50 (nmol)

SMILES | EC50 [1] [µM] | EC50 (unit μM, read-out: EC50) [µM]
CCC[C@H](C)Oc1nc(N)c2ncc(CC3CC4CCC(C3)N4)n2n1 (stereo partly drawn) [Compound B56, 7-((8-azabicyclo[3.2.1]oct-3-yl)methyl)-2-(((S)-pent-2-yl)oxy)imidazo[2,1-f][1,2,4]triazin-4-amine] | 1.92 | 
CCC[C@H](C)Oc1nc(N)c2ncc(CC3CC4(CCNCC4)C3)n2n1 [Compound B50, (S)-7-((7-azaspiro[3.5]non-2-yl)methyl)-2-(pent-2-yloxy)imidazo[2,1-f][1,2,4]triazin-4-amine] | 0.209 | 
CCC[C@H](C)Oc1nc(N)c2ncc(CC3CCNC3)n2n1 (stereo partly drawn) [Compound B26, 2—(((S)-pent-2-yl)oxy)-7-(pyrrolidin-3-ylmethyl)imidazo[2,1-f][1,2,4]triazin-4-amine] | 0.099 | 
CCC[C@H](C)Oc1nc(N)c2ncc(CC3CCCN3)n2n1 (stereo partly drawn) [Compound B42, 2-(((S)-pent-2-yl)oxy)-7-(pyrrolidin-2-ylmethyl)imidazo[2,1-f][1,2,4]triazin-4-amine] | 0.036 | 
CCC[C@H](C)Oc1nc(N)c2ncc(CC3CCNCC3(F)F)n2n1 (stereo partly drawn) [Compound B57, 7-((3,3-difluorpiperidin-4-yl)methyl)-2-(((S)-pent-2-yl)oxy)imidazo[2,1-f][1,2,4]triazin-4-amine] |  | > 10
CCC[C@H](C)Oc1nc(N)c2ncc(CC3CCN(C4CCNCC4)CC3)n2n1 [Compound B23, (S)-7-([1,4′-bipiperidin]-4-ylmethyl)-2-(pent-2-yloxy)imidazo[2,1-f][1,2,4]triazin-4-amine] | 0.143 | 
CCCCCc1nc(N)c2ncc(CC3CCNCC3)n2n1 [Compound B11, 2-pentyl-7-(piperidin-4-ylmethyl)imidazo[2,1-f][1,2,4]triazin-4-amine] | 1.79 | 
CCCC(C)Oc1nc(N)c2ncc(CN3CCNC[C@H]3C)n2n1 (stereo partly drawn) [Compound B18, 7—(((R)-2-methylpiperazin-1-yl)methyl)-2-(pent-2-yloxy)imidazo[2,1-f][1,2,4]triazin-4-amine] | 2.72 | 
CCCCOc1nc(N)c2ncc(CC3CCNCC3)n2n1 [Compound B1, 2-butoxy-7-(piperidin-4-ylmethyl)imidazo[2,1-f][1,2,4]triazin-4-amine] | 0.051 | 
Cc1cnc(COc2nc(N)c3ncc(CC4CCNCC4)n3n2)s1 [Compound B44, 2-((5-methylthiazol-2-yl)methoxy)-7-(piperidin-4-ylmethyl)imidazo[2,1-f][1,2,4]triazin-4-amine] | > 10 | 
CCCC(Cc1ccccc1)Oc1nc(N)c2ncc(CC3CCNCC3)n2n1 (stereo not shown) [Compound B45, 2-((1-phenylpent-2-yl)oxy)-7-(piperidin-4-ylmethyl)imidazo[2,1-f][1,2,4]triazin-4-amine] | 0.531 | 
CCCCNc1nc(N)c2ncc(CC3CCNCC3)n2n1 [Compound B4, N2-butyl-7-(piperidin-4-ylmethyl)imidazo[2,1-f][1,2,4]triazin-2,4-diamine] | 0.347 | 
CCCC(C)Oc1nc(N)c2ncc(CN3CCN[C@@H](C)C3)n2n1 (stereo partly drawn) [Compound B16, 7—(((S)-3-methylpiperazin-1-yl)methyl)-2-(pent-2-yloxy)imidazo[2,1-f][1,2,4]triazin-4-amine] | 8.49 | 
CCC[C@H](C)Oc1nc(N)c2ncc(CC3CCCCN3)n2n1 (stereo partly drawn) [Compound B51, 2-(((S)-pent-2-yl)oxy)-7-(piperidin-2-ylmethyl)imidazo[2,1-f][1,2,4]triazin-4-amine] | 0.41 | 
CCC[C@H](C)Oc1nc(N)c2ncc(C=C3CC4CCC(C3)N4)n2n1 [Compound B55, 7-((8-azabicyclo[3.2.1]oct-3-ylene)methyl)-2-(((S)-pent-2-yl)oxy)imidazo[2,1-f][1,2,4]triazin-4-amine] |  | > 10
CCCC(C)Oc1nc(N)c2ncc(CN3CCNC[C@@H]3C)n2n1 (stereo partly drawn) [Compound B17, 7—(((S)-2-methylpiperazin-1-yl)methyl)-2-(pent-2-yloxy)imidazo[2,1-f][1,2,4]triazin-4-amine] | 3.95 | 

Further lines, results first:

EC50 [1] [µM] | EC50 (unit μM, read-out: EC50) [µM] | SMILES
> 10 |  | CCCC(C)Oc1nc(N)c2ncc(CN3CCC(CNC)CC3)n2n1 (stereo not shown) [Compound B22]
 | > 10 | CCC[C@H](C)Oc1nc(N)c2ncc(/C=C3/CCNCC3(C)C)n2n1 [Compound B52, (S)-7-((3,3-dimethylpiperidin-4-ylidene)methyl)-2-(pent-2-yloxy)imidazo[2,1-f][1,2,4]triazin-4-amine]
0.0075 |  | CCC[C@H](CC)Oc1nc(N)c2ncc(CC3CCNCC3)n2n1 [Compound B49, (S)-2-(hex-3-yloxy)-7-(piperidin-4-ylmethyl)imidazo[2,1-f][1,2,4]triazin-4-amine]
1.01 |  | CCC[C@H](C)Oc1nc(N)c2ncc(CC34CC(N)(C3)C4)n2n1 [Compound B40, (S)-7-((3-aminobicyclo[1.1.1]pent-1-yl)methyl)-2-(pent-2-yloxy)imidazo[2,1-f][1,2,4]triazin-4-amine]
0.127 |  | CCC[C@H](C)Oc1nc(N)c2ncc(CC3CNC3)n2n1 [Compound B39, (S)-7-(azetidin-3-ylmethyl)-2-(pent-2-yloxy)imidazo[2,1-f][1,2,4]triazin-4-amine]
0.558 |  | CCC[C@H](C)Oc1nc(N)c2ncc(CC3CCN(CC4CCCN4)CC3)n2n1 (stereo partly drawn) [Compound B20, 2—(((S)-pent-2-yl)oxy)-7-((1-(pyrrolidin-2-ylmethyl)piperidin-4-yl)methyl)imidazo[2,1-f][1,2,4]triazin-4-amine]
0.022 |  | CCC[C@H](C)Oc1nc(N)c2ncc(CC3CCN(C)CC3)n2n1 [Compound B32, (S)-7-((1-methylpiperidin-4-yl)methyl)-2-(pent-2-yloxy)imidazo[2,1-f][1,2,4]triazin-4-amine]
0.138 |  | CCC[C@H](C)Oc1nc(N)c2ncc(CC3CCN(CC4CCNCC4)CC3)n2n1 [Compound B14, (S)-2-(pent-2-yloxy)-7-((1-(piperidin-4-ylmethyl)piperidin-4-yl)methyl)imidazo[2,1-f][1,2,4]triazin-4-amine]
0.022 |  | CCC[C@H](C)Oc1nc(N)c2ncc(CC3CCN(CC(C)NC)CC3)n2n1 (stereo partly drawn) [Compound B54, 7-((1-(2-(methylamino)propyl)piperidin-4-yl)methyl)-2-(((S)-pent-2-yl)oxy)imidazo[2,1-f][1,2,4]triazin-4-amine]
> 10 |  | CCCC(C)Oc1nc(N)c2ncc(C3(O)CC4(CCNCC4)C3)n2n1 (stereo not shown) [Compound B24, 2-(4-amino-2-(pent-2-yloxy)imidazo[2,1-f][1,2,4]triazin-7-yl)-7-azaspiro[3.5]nona-2-ol]
1.08 |  | CCCC(C)Oc1nc(N)c2ncc(CN3CCN[C@H](C)C3)n2n1 (stereo partly drawn) [Compound B15, 7—(((R)-3-methylpiperazin-1-yl)methyl)-2-(pent-2-yloxy)imidazo[2,1-f][1,2,4]triazin-4-amine]
0.225 |  | CCCC(CO)Oc1nc(N)c2ncc(CC3CCNCC3)n2n1 (stereo not shown) [Compound B34, 2-((4-amino-7-(piperidin-4-ylmethyl)imidazo[2,1-f][1,2,4]triazin-2-yl)oxy) pentan-1-ol]
0.084 |  | CCCC(CCC)Oc1nc(N)c2ncc(CC3CCNCC3)n2n1 [Compound B47, 2-(hept-4-yloxy)-7-(piperidin-4-ylmethyl)imidazo[2,1-f][1,2,4]triazin-4-amine]
0.529 |  | CCCC(C)Oc1nc(N)c2ncc(CN3CCNCC3)n2n1 (stereo not shown) [Compound B9, 2-(pent-2-yloxy)-7-(piperazin-1-ylmethyl)imidazo[2,1-f][1,2,4]triazin-4-amine]
> 10 |  | Cc1cc(COc2nc(N)c3ncc(CC4CCNCC4)n3n2)no1 [Compound B41, 2-((5-methylisoxazol-3-yl)methoxy)-7-(piperidin-4-ylmethyl)imidazo[2,1-f][1,2,4]triazin-4-amine]

From US12590096B2, “Imidazo[2,1-f][1,2,4]triazin-4-amine as TLR8 agonists” (BeOne Medicines | GmbH, priority 2019, dated 2026)
